Experimental data from the NIST ThermoML archive (doi:10.1021/je900789j).
± gives the expanded uncertainty stated by the source.

Settings: 101.33 kPa, Liquid; for electrical conductivity: Alternating current cell with electrodes; for mass density: Vibrating tube method

CCCCn1cc[n+](C)c1.F[B-](F)(F)F [1-butyl-3-methylimidazolium tetrafluoroborate]
electrical conductivity (238.05 K): 0.00212 ± 2e-05 S/m | electrical conductivity (248.05 K): 0.00778 ± 8e-05 S/m | electrical conductivity (258.05 K): 0.0225 ± 0.0002 S/m | electrical conductivity (268.1 K): 0.0542 ± 0.0005 S/m | electrical conductivity (278.1 K): 0.1132 ± 0.0011 S/m | mass density (278.1 K): 1215.43 ± 2.9 kg/m3 | electrical conductivity (288.15 K): 0.211 ± 0.002 S/m | mass density (288.15 K): 1209.33 ± 2.8 kg/m3 | electrical conductivity (298.15 K): 0.352 ± 0.004 S/m | mass density (298.15 K): 1202.08 ± 2.8 kg/m3 | electrical conductivity (308.15 K): 0.556 ± 0.006 S/m | mass density (308.15 K): 1194.78 ± 2.8 kg/m3 | electrical conductivity (318.15 K): 0.821 ± 0.008 S/m | mass density (318.15 K): 1187.79 ± 2.7 kg/m3 | electrical conductivity (328.15 K): 1.15 ± 0.012 S/m | mass density (328.15 K): 1180.62 ± 2.7 kg/m3 | electrical conductivity (338.15 K): 1.545 ± 0.015 S/m | mass density (338.15 K): 1173.51 ± 2.6 kg/m3 | electrical conductivity (348.15 K): 2 ± 0.02 S/m | electrical conductivity (358.15 K): 2.52 ± 0.03 S/m | electrical conductivity (368.15 K): 3.1 ± 0.03 S/m | electrical conductivity (378.15 K): 3.73 ± 0.04 S/m | electrical conductivity (388.15 K): 4.41 ± 0.04 S/m | electrical conductivity (398.15 K): 5.13 ± 0.05 S/m | electrical conductivity (408.15 K): 5.88 ± 0.06 S/m | electrical conductivity (418.15 K): 6.64 ± 0.07 S/m | electrical conductivity (428.15 K): 7.45 ± 0.07 S/m | electrical conductivity (438.15 K): 8.29 ± 0.08 S/m | electrical conductivity (448.15 K): 9.15 ± 0.09 S/m | electrical conductivity (458.15 K): 10.04 ± 0.1 S/m | electrical conductivity (468.15 K): 10.9 ± 0.11 S/m

CCn1cc[n+](C)c1.F[B-](F)(F)F [1-ethyl-3-methylimidazolium tetrafluoroborate]
electrical conductivity (248.05 K): 0.106 ± 0.0011 S/m | electrical conductivity (258.05 K): 0.228 ± 0.002 S/m | electrical conductivity (268.1 K): 0.423 ± 0.004 S/m | electrical conductivity (278.1 K): 0.703 ± 0.007 S/m | mass density (278.1 K): 1293.75 ± 3.2 kg/m3 | electrical conductivity (288.15 K): 1.08 ± 0.011 S/m | mass density (288.15 K): 1288.03 ± 3.2 kg/m3 | electrical conductivity (298.15 K): 1.546 ± 0.015 S/m | mass density (298.15 K): 1280.07 ± 3.2 kg/m3 | electrical conductivity (308.15 K): 2.11 ± 0.02 S/m | mass density (308.15 K): 1272.48 ± 3.1 kg/m3 | electrical conductivity (318.15 K): 2.77 ± 0.03 S/m | mass density (318.15 K): 1265.12 ± 3.1 kg/m3 | electrical conductivity (328.15 K): 3.51 ± 0.04 S/m | mass density (328.15 K): 1256.89 ± 3.1 kg/m3 | electrical conductivity (338.15 K): 4.34 ± 0.04 S/m | mass density (338.15 K): 1250.24 ± 3 kg/m3 | electrical conductivity (348.15 K): 5.23 ± 0.05 S/m | electrical conductivity (358.15 K): 6.2 ± 0.06 S/m | electrical conductivity (368.15 K): 7.22 ± 0.07 S/m | electrical conductivity (378.15 K): 8.29 ± 0.08 S/m | electrical conductivity (388.15 K): 9.41 ± 0.09 S/m | electrical conductivity (398.15 K): 10.6 ± 0.11 S/m | electrical conductivity (408.15 K): 11.8 ± 0.12 S/m | electrical conductivity (418.15 K): 13 ± 0.13 S/m | electrical conductivity (428.15 K): 14.22 ± 0.14 S/m | electrical conductivity (438.15 K): 15.48 ± 0.15 S/m | electrical conductivity (448.15 K): 16.8 ± 0.17 S/m | electrical conductivity (458.15 K): 18.03 ± 0.18 S/m | electrical conductivity (468.15 K): 19.3 ± 0.2 S/m

CCCCCCn1cc[n+](C)c1.F[B-](F)(F)F [1-hexyl-3-methylimidazolium tetrafluoroborate]
electrical conductivity (238.05 K): 0.000405 ± 4e-06 S/m | electrical conductivity (248.05 K): 0.00169 ± 1.7e-05 S/m | electrical conductivity (258.05 K): 0.00544 ± 5e-05 S/m | electrical conductivity (268.1 K): 0.0145 ± 0.00015 S/m | electrical conductivity (278.1 K): 0.0332 ± 0.0003 S/m | mass density (278.1 K): 1159.81 ± 2.6 kg/m3 | electrical conductivity (288.15 K): 0.0672 ± 0.0007 S/m | mass density (288.15 K): 1153.14 ± 2.6 kg/m3 | electrical conductivity (298.15 K): 0.1229 ± 0.0012 S/m | mass density (298.15 K): 1146.18 ± 2.5 kg/m3 | electrical conductivity (308.15 K): 0.207 ± 0.002 S/m | mass density (308.15 K): 1139.15 ± 2.5 kg/m3 | electrical conductivity (318.15 K): 0.326 ± 0.003 S/m | mass density (318.15 K): 1132.31 ± 2.5 kg/m3 | electrical conductivity (328.15 K): 0.483 ± 0.005 S/m | mass density (328.15 K): 1125.18 ± 2.4 kg/m3 | electrical conductivity (338.15 K): 0.683 ± 0.007 S/m | mass density (338.15 K): 1118.54 ± 2.4 kg/m3 | electrical conductivity (348.15 K): 0.926 ± 0.009 S/m | electrical conductivity (358.15 K): 1.214 ± 0.012 S/m | electrical conductivity (368.15 K): 1.545 ± 0.015 S/m | electrical conductivity (378.15 K): 1.92 ± 0.02 S/m | electrical conductivity (388.15 K): 2.33 ± 0.02 S/m | electrical conductivity (398.15 K): 2.78 ± 0.03 S/m | electrical conductivity (408.15 K): 3.26 ± 0.03 S/m | electrical conductivity (418.15 K): 3.77 ± 0.04 S/m | electrical conductivity (428.15 K): 4.31 ± 0.04 S/m | electrical conductivity (438.15 K): 4.88 ± 0.05 S/m | electrical conductivity (448.15 K): 5.46 ± 0.05 S/m | electrical conductivity (458.15 K): 6.07 ± 0.06 S/m | electrical conductivity (468.15 K): 6.69 ± 0.07 S/m

CCCCCCCC[n+]1ccn(C)c1.F[B-](F)(F)F [1-methyl-3-octylimidazolium tetrafluoroborate]
electrical conductivity (238.05 K): 0.0001524 ± 1.5e-06 S/m | electrical conductivity (248.05 K): 0.00065 ± 7e-06 S/m | electrical conductivity (258.05 K): 0.00218 ± 2e-05 S/m | electrical conductivity (268.1 K): 0.00605 ± 6e-05 S/m | electrical conductivity (278.1 K): 0.01441 ± 0.00014 S/m | mass density (278.1 K): 1116.79 ± 2.4 kg/m3 | electrical conductivity (288.15 K): 0.0304 ± 0.0003 S/m | mass density (288.15 K): 1110.36 ± 2.4 kg/m3 | electrical conductivity (298.15 K): 0.0579 ± 0.0006 S/m | mass density (298.15 K): 1103.6 ± 2.3 kg/m3 | electrical conductivity (308.15 K): 0.1012 ± 0.001 S/m | mass density (308.15 K): 1096.82 ± 2.3 kg/m3 | electrical conductivity (318.15 K): 0.1647 ± 0.0016 S/m | mass density (318.15 K): 1090.04 ± 2.3 kg/m3 | electrical conductivity (328.15 K): 0.252 ± 0.003 S/m | mass density (328.15 K): 1083.22 ± 2.2 kg/m3 | electrical conductivity (338.15 K): 0.368 ± 0.004 S/m | mass density (338.15 K): 1076.46 ± 2.2 kg/m3 | electrical conductivity (348.15 K): 0.512 ± 0.005 S/m | electrical conductivity (358.15 K): 0.688 ± 0.007 S/m | electrical conductivity (368.15 K): 0.895 ± 0.009 S/m | electrical conductivity (378.15 K): 1.134 ± 0.011 S/m | electrical conductivity (388.15 K): 1.403 ± 0.014 S/m | electrical conductivity (398.15 K): 1.701 ± 0.017 S/m | electrical conductivity (408.15 K): 2.03 ± 0.02 S/m | electrical conductivity (418.15 K): 2.38 ± 0.02 S/m | electrical conductivity (428.15 K): 2.75 ± 0.03 S/m | electrical conductivity (438.15 K): 3.15 ± 0.03 S/m | electrical conductivity (448.15 K): 3.56 ± 0.04 S/m | electrical conductivity (458.15 K): 3.99 ± 0.04 S/m | electrical conductivity (468.15 K): 4.44 ± 0.04 S/m
